Source: the supplement of paper PMC10307832

Experiments:
Experiment in all cases: relative viability (nuclei count vs DMSO), 5 days (fraction); higher = more cells survive
GSK-J4 + Olaparib = compound: CCOC(=O)CCNc1cc(N2CCc3ccccc3CC2)nc(-c2ccccn2)n1 [GSK-J4] + O=C(c1cc(Cc2n[nH]c(=O)c3ccccc23)ccc1F)N1CCN(C(=O)C2CC2)CC1 [Olaparib] (partner 8 µM)
Summary of the method: (§1)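 Values are medians from duplicate plates. Each reflects relative viability, defined as the nuclei count of treated wells over that of vehicle wells. Lung cancer cell lines in 1536-well plates were pin-tool dosed one day after seeding with one drug alone or with a fixed anchor-drug dose plus five library-drug doses (not always all listed) in √10 steps, then fixed, stained and imaged at 4× after 5 days.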

AZ3146 + Bortezomib = compound: CN1CCC(CC1)OC2=CC(=C(C=C2)NC3=NC=C4C(=N3)N(C(=O)N4C)C5CCCC5)OC [AZ3146] + CC(C)C[C@H](NC(=O)[C@H](Cc1ccccc1)NC(=O)c1cnccn1)B(O)O [Bortezomib] (partner 0.002 µM)
Summary of the method: as §1

GSK-J4 + Alpelisib = compound: CCOC(=O)CCNc1cc(N2CCc3ccccc3CC2)nc(-c2ccccn2)n1 [GSK-J4] + Cc1nc(NC(=O)N2CCC[C@H]2C(N)=O)sc1-c1ccnc(C(C)(C)C(F)(F)F)c1 [Alpelisib] (partner 2 µM)
Summary of the method: as §1

AZ3146 + Linsitinib = compound: CN1CCC(CC1)OC2=CC(=C(C=C2)NC3=NC=C4C(=N3)N(C(=O)N4C)C5CCCC5)OC [AZ3146] + C[C@]1(O)C[C@@H](c2nc(-c3ccc4ccc(-c5ccccc5)nc4c3)c3c(N)nccn32)C1 [Linsitinib] (partner 1 µM)
Summary of the method: as §1

| Cell Line | relative viability (GSK-J4 + Olaparib; first compound 0.5 µM) | relative viability (GSK-J4 + Olaparib; first compound 1.581 µM) | relative viability (GSK-J4 + Olaparib; first compound 5 µM) | relative viability (GSK-J4 + Olaparib; first compound 15.81 µM) | relative viability (GSK-J4 + Olaparib; first compound 50 µM) | relative viability (AZ3146 + Bortezomib; first compound 0.08 µM) | relative viability (AZ3146 + Bortezomib; first compound 0.253 µM) | relative viability (AZ3146 + Bortezomib; first compound 0.8 µM) | relative viability (AZ3146 + Bortezomib; first compound 2.53 µM) | relative viability (AZ3146 + Bortezomib; first compound 8 µM) | relative viability (GSK-J4 + Alpelisib; first compound 0.5 µM) | relative viability (GSK-J4 + Alpelisib; first compound 1.581 µM) | relative viability (GSK-J4 + Alpelisib; first compound 5 µM) | relative viability (GSK-J4 + Alpelisib; first compound 15.81 µM) | relative viability (GSK-J4 + Alpelisib; first compound 50 µM) | relative viability (AZ3146 + Linsitinib; first compound 0.08 µM) | relative viability (AZ3146 + Linsitinib; first compound 0.253 µM) | relative viability (AZ3146 + Linsitinib; first compound 0.8 µM) | relative viability (AZ3146 + Linsitinib; first compound 2.53 µM) | relative viability (AZ3146 + Linsitinib; first compound 8 µM) |
| --- | --- | --- | --- | --- | --- | --- | --- | --- | --- | --- | --- | --- | --- | --- | --- | --- | --- | --- | --- | --- |
| NCI-H322M | 0.829 | 0.729 | 0.935 | 0.782 | 0.658 | 1.29 | 1.18 | 1.18 | 1.29 | 1.18 | 0.901 | 0.718 | 0.734 | 0.747 | 0.733 | 0.937 | 0.884 | 0.868 | 0.991 | 0.842 |
| H3255 | 0.553 | 0.521 | 0.523 | 0.445 | 0.362 | 0.757 | 0.627 | 0.825 | 0.835 | 0.792 | 0.591 | 0.64 | 0.614 | 0.593 | 0.531 | 0.9 | 0.987 | 0.961 | 0.998 | 0.902 |
| EKVX | 0.867 | – | 0.859 | 0.681 | 0.703 | 1.03 | 1.07 | 1.11 | 1.04 | 1.26 | 0.848 | 0.769 | 0.952 | 0.824 | 0.776 | 0.945 | 1 | 0.819 | 1.09 | 0.95 |
| NCI-H1993 | 1.21 | 0.885 | 1.1 | 0.952 | 1.01 | 1.05 | 1.07 | 1.19 | 1.2 | 0.976 | 0.657 | 0.643 | 0.702 | 0.667 | 0.621 | 0.689 | 0.731 | 0.782 | 0.789 | 0.704 |
| NCI-H650 | 0.356 | 0.371 | – | 0.272 | 0.296 | 0.519 | 0.691 | 0.762 | 0.999 | 0.897 | 0.926 | 1.11 | 0.729 | 1.07 | 0.767 | 0.539 | 0.805 | 0.8 | 1.26 | 0.779 |
| NCI-H460 | 0.384 | – | – | 0.433 | 0.343 | 1.14 | 0.92 | 1.02 | 0.97 | 0.543 | 0.54 | 0.377 | 0.554 | 0.456 | 0.433 | 0.719 | 0.824 | 0.65 | 0.787 | 0.244 |
| NCI-H1437 | 0.587 | 0.596 | 0.601 | 0.609 | 0.301 | 0.497 | 0.441 | 0.469 | 0.535 | 0.479 | 0.904 | 0.979 | 0.908 | 0.873 | 0.428 | 0.967 | 0.996 | 1.01 | 1.04 | 1.03 |
| NCI-H2347 | 0.587 | 0.597 | 0.554 | 0.675 | 0.437 | 0.747 | 1.08 | 0.758 | 1.02 | 1.02 | 1.02 | 0.659 | 0.933 | 1.05 | 0.722 | 1.01 | 0.893 | 0.891 | 0.887 | 0.988 |
| LCLC-103H | 0.8 | 0.685 | 0.776 | 0.654 | 0.646 | 0.993 | 1.03 | 1 | 0.994 | 0.965 | 0.934 | 0.859 | 1.09 | 0.986 | 1.11 | 1.06 | 0.978 | 1.16 | 1.13 | 1.1 |
| NCI-H661 | 0.704 | 0.67 | 0.7 | 0.559 | 0.461 | 0.71 | 0.893 | 0.92 | 0.922 | 0.692 | 0.727 | 0.602 | 0.578 | 0.5 | 0.53 | 0.61 | 0.6 | 0.603 | 0.584 | 0.616 |
| NCI-H2126 | 0.912 | 0.895 | 0.966 | 0.855 | 0.762 | 1.07 | 1.11 | 1.09 | 1.09 | 1.08 | 0.763 | 0.706 | 0.787 | 0.741 | 0.684 | 0.687 | 0.667 | 0.761 | 0.739 | 0.696 |
| HCC-78 | 0.688 | 0.774 | 1.1 | 0.656 | 0.742 | – | 0.471 | 0.271 | 0.558 | 0.447 | 0.403 | 0.31 | 0.501 | – | 0.316 | – | 0.476 | 0.416 | 0.532 | 0.522 |
| PC-14 | 0.304 | 0.271 | 0.195 | 0.228 | 0.227 | 0.872 | 0.891 | 0.846 | 0.997 | 0.721 | 0.916 | 0.909 | 0.946 | 0.873 | 0.913 | 1.05 | 0.995 | 0.98 | 1.03 | 0.941 |
| NCI-H520 | 0.32 | 0.278 | 0.354 | 0.332 | 0.29 | 0.355 | 0.677 | 0.614 | 0.673 | 0.583 | 0.899 | 0.781 | 1.2 | 0.868 | 0.834 | 0.843 | 0.896 | 1.05 | 1.12 | 0.786 |
| LXF-289 | 1.03 | 1.01 | 1.14 | 0.991 | 0.891 | 0.996 | 1.02 | 0.978 | 1.01 | 0.908 | 0.971 | 0.957 | 1.04 | 0.991 | 0.956 | 0.885 | 1.01 | 0.965 | 0.957 | 0.939 |
